For one compound, Ki results are on record in BindingDB's records for doi:10.1021/jm049513x (University of Bonn, 2005).

The assay is described as follows: Percent inhibition of [3H]PSB-11 binding to adenosine A3 receptor at 10 uM.

Consider `CCCn1c(=O)c2nc(C3CC(C)(C)N([O])C(C)(C)C3)[nH]c2n(CCC)c1=O`, for which the affinity corresponds to a Ki of 45 nM.

A word on the Ki: it is the dissociation constant of the complex between target and ligand, obtained from inhibition or displacement.
